In patent US20240269139A1, “COMPOUNDS FOR TARGETED PROTEIN DEGRADATION OF KINASES” (DANA-FARBER CANCER INSTITUTE, INC., priority 2020, published 2024):
Where two headings read alike, the source gives them in different places.

Tests used:
[1] = target: protein kinases (human kinome) (Homo sapiens, UniProt P45984); assay type: cell-based
[2] = target: extended human kinome (kinase-like proteins) (Homo sapiens, UniProt Q16875); assay: Whole cell quantitative proteomics: extended kinome hits; conditions: Accession Q16875
extended human kinome (kinase-like proteins) (Homo sapiens, UniProt Q16875), sequence (Q16875 whole entry): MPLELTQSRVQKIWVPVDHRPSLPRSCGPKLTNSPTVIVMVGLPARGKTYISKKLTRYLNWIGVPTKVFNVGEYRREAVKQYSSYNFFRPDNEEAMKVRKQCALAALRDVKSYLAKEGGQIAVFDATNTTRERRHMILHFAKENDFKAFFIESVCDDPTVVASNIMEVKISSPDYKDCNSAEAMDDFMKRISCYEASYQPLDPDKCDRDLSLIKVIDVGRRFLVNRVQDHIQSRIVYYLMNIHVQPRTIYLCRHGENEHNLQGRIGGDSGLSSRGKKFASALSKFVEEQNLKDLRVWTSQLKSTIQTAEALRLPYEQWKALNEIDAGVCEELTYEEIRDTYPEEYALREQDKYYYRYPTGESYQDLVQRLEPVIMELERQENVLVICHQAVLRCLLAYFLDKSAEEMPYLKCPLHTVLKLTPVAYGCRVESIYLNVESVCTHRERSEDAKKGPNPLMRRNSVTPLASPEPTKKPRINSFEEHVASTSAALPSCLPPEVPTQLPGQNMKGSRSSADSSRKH
Description: (§1) Whole cell multiplexed quantitative proteomics was employed to measure changes in abundance of the proteome in response to treatment with each of the kinase degrader molecules relative to DMSO (Table 1, Appendix I).
(§2) Cells were treated with DMSO (biological triplicate) or degrader at indicated dose and time and cells were harvested by centrifugation. […] Precipitated protein was resuspended in 4 M Urea, 50 mM HEPES pH 7.4, followed by dilution to 1 M urea with the addition of 200 mM EPPS, pH 8. Proteins were first digested with LysC (1:50: enzyme:protein) for 12 hours at room temperature. The LysC digestion was diluted to 0.5 M Urea with 200 mM EPPS pH 8 followed by digestion with trypsin (1:50; enzyme:protein) for 6 hours at 37° C. Tandem mass tag (TMT) reagents (Thermo Fisher Scientific) were dissolved in anhydrous acetonitrile (ACN) according to manufacturer's instructions. […] The 10, 11, or 16-plex labeling reactions were performed for 1.5 hours at room temperature and the reaction quenched by the addition of hydroxylamine to a final concentration of 0.3% for 15 minutes at room temperature. The sample channels were combined at a 1:1 ratio, desalted using C18 solid phase extraction cartridges (Waters®) and analyzed by LC-MS for channel ratio comparison. Samples were then combined using the adjusted volumes determined in the channel ratio analysis and dried down in a speed vacuum. The combined sample was then resuspended in 1% formic acid, and acidified (pH 2-3) before being subjected to desalting with C18 SPE (Sep-Pak®, Waters®). Samples were then offline fractionated into 96 fractions by high pH reverse-phase HPLC (Agilent® LC1260) through an aeris peptide xb-c18 column (Phenomenex®) with mobile phase A containing 5% acetonitrile and 10 mM NH4HCO3 in LC-MS grade H2O, and mobile phase B containing 90% acetonitrile and 10 mM NH4HCO3 in LC-MS grade H2O (both pH 8.0). The 96 resulting fractions were then pooled in a non-continuous manner into 24 fractions and desalted using C18 solid phase extraction plates (SOLA®, Thermo Fisher Scientific) followed by subsequent mass spectrometry analysis.
(§3) Data were collected using an Orbitrap Fusion™ Lumos™ mass spectrometer (Thermo Fisher Scientific, San Jose, CA, USA) coupled with a Proxeon EASY-nLC™ 1200 LC pump (Thermo Fisher Scientific) or an Orbitrap Eclipse™ Tribrid™ mass spectrometer (Thermo Fisher Scientific, San Jose, CA, USA) coupled with an UltiMate™ 3000 RSLCnano System. Peptides were separated on an EasySpray™ ES803a/ES803a.rev2 75 μm inner diameter microcapillary column (ThermoFisher Scientific).
(§4) Data dependent MS2 spectra were acquired in the ion trap with a normalized collision energy (NCE) set at 35%, AGC target set to 1.8×10^4 and a maximum injection time of 120 ms. MS3 scans were acquired in the Orbitrap with HCD collision energy set to 55%. AGC target set to 2×10^5, maximum injection time of 150 ms, resolution at 50,000 and with a maximum synchronous precursor selection (SPS) precursors set to 10.
(§5) Proteome Discoverer™ 2.1, 2.2 or 2.4 (Thermo Fisher Scientific) was used for .RAW file processing and controlling peptide and protein level false discovery rates, assembling proteins from peptides, and protein quantification from peptides.

[3] = target: T1, protein kinases (human kinome) (Homo sapiens, UniProt Q4G0N4); assay type: cell-based; conditions: Accession Q4GON4, direction down
T1 sequence (Q4G0N4 63-442): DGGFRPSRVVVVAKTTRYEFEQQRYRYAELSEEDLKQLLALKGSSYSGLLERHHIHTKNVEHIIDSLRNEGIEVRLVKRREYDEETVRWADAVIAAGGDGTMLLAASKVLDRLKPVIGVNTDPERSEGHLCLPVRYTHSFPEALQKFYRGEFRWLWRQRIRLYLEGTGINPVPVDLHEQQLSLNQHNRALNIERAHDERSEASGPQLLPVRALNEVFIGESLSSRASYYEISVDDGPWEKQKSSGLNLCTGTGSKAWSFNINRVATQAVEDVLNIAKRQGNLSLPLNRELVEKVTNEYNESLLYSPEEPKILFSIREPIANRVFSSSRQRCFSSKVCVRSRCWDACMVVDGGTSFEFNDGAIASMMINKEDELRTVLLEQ

[4] = target: extended human kinome (kinase-like proteins) (Homo sapiens, UniProt P27144); assay: Whole cell quantitative proteomics: extended kinome hits
extended human kinome (kinase-like proteins) (Homo sapiens, UniProt P27144), sequence (P27144 whole entry): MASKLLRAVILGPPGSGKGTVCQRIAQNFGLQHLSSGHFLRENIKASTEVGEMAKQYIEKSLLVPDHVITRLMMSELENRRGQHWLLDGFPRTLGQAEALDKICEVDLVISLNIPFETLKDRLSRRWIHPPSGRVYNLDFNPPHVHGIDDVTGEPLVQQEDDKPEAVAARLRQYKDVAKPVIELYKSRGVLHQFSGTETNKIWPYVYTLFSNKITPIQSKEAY
Description: as §1, §2, §3, §4, §5

[5] = target: T2, extended human kinome (kinase-like proteins) (Homo sapiens, UniProt Q53R41); assay: as above
T2 sequence (Q53R41 1-847): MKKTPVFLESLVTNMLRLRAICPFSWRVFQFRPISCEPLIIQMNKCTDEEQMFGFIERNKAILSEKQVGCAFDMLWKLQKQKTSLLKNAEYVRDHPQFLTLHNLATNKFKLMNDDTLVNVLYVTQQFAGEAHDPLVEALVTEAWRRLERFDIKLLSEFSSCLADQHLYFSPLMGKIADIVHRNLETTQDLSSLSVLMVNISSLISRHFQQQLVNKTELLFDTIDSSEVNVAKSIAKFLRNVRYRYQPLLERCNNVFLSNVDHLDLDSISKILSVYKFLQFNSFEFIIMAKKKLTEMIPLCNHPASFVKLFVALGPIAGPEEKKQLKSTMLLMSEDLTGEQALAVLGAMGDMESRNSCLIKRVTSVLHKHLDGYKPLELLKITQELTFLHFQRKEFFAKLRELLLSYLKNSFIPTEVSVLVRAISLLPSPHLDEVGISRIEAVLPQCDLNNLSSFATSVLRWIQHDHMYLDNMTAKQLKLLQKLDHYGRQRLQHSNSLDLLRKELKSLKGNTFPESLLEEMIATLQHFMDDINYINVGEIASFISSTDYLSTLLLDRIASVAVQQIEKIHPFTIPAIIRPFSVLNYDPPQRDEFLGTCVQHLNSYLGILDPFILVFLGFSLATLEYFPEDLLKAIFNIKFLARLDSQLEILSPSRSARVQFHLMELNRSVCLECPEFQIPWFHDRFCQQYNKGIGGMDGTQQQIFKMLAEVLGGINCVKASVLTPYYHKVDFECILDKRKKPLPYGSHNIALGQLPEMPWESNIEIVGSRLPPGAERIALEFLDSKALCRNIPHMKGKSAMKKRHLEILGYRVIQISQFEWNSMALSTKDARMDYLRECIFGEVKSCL
Description: as §1, §2, §3, §4, §5

[6] = target: T3, extended human kinome (kinase-like proteins) (Homo sapiens, UniProt Q7L8L6); assay: as above; conditions: Accession Q7L8L6
T3 sequence (Q7L8L6 28-764): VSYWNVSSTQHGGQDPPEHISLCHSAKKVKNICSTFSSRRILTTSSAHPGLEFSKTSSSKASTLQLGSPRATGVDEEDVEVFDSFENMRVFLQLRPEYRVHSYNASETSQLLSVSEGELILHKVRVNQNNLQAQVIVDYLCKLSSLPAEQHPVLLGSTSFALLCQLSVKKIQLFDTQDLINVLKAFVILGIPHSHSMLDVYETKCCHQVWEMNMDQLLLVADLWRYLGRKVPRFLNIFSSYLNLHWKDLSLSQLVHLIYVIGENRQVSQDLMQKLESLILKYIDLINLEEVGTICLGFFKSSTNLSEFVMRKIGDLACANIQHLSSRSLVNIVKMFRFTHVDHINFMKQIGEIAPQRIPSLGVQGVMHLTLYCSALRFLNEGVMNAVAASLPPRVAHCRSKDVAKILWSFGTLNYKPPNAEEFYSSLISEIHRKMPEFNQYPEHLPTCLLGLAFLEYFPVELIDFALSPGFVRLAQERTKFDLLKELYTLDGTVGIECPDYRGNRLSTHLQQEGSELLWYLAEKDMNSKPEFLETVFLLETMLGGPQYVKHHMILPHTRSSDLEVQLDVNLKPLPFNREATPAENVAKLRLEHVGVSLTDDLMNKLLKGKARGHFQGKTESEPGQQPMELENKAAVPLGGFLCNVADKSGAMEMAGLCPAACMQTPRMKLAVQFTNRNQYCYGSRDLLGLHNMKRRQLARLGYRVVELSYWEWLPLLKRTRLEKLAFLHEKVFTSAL
Description: as §1, §2, §3, §4, §5

[7] = target: extended human kinome (kinase-like proteins) (Homo sapiens, UniProt Q9UIJ7); assay: as above
extended human kinome (kinase-like proteins) (Homo sapiens, UniProt Q9UIJ7), sequence (Q9UIJ7 whole entry): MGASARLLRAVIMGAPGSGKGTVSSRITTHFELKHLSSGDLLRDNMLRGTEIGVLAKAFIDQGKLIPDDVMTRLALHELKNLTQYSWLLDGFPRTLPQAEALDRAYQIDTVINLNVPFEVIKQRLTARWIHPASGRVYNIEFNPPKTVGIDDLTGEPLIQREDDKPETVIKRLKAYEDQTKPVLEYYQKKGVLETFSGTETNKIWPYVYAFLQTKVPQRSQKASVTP
Description: as §1, §2, §3, §4, §5

[8] = MAPK9 P45984-1, experiment wp168
[9] = MAPK9 P45984-1, experiment wp045
[10] = MAPK9 P45984-1, experiment wp103
[11] = MAPK9 P45984-1, experiment wp105
[12] = MAPK9 P45984-1, experiment wp107
[13] = MAPK9 P45984-1, experiment wp114
[14] = MAPK9 P45984-1, experiment wp117
[15] = MAPK9 P45984-1, experiment wp160, 2 hr
[16] = MAPK9 P45984-1, experiment wp160, 4 hr
[17] = MAPK9 P45984-1, experiment wp160, 8 hr
[18] = MAPK9 P45984-1, experiment wp172
[19] = MAPK9 P45984-1, experiment wp146

protein kinases (human kinome) (Homo sapiens, UniProt P45984), sequence (P45984 whole entry): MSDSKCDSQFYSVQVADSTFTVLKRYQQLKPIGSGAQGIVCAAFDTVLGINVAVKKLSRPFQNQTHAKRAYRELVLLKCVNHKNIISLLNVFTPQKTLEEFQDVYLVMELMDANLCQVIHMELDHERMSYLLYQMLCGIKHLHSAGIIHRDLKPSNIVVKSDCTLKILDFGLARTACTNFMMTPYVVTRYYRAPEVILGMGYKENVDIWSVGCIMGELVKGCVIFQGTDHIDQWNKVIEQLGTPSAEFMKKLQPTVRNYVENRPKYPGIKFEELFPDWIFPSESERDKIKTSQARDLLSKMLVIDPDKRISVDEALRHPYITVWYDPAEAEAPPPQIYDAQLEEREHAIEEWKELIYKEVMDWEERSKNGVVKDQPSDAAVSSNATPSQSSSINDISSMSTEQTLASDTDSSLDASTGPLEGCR

## Cc1ccc(NC(=O)c2cccc(C(F)(F)F)c2)cc1N1Cc2cnc(Nc3ccc(N4CCN(CCCOc5cccc6c5C(=O)N(C5CCC(=O)NC5=O)C6=O)CC4)nc3)nc2N(C)C1=O (stereo not shown) [DB0662]
[1]; [8]
  logFC: −2.611
  logFC MAPK9: −2.611
[2]; experiment wp168
  logFC PFKFB3: −0.4517

## Cc1ccc(NC(=O)c2cccc(C(F)(F)F)c2)cc1N1Cc2cnc(Nc3ccc(N4CCN(Cc5cn(CCCCCOc6cccc7c6C(=O)N(C6CCC(=O)NC6=O)C7=O)nn5)CC4)nc3)nc2N(C)C1=O (stereo not shown) [DB0646, N-(3-(7-((6-(4-((1-(5-((2-(2,6-Dioxopiperidin-3-yl)-1,3-dioxoisoindolin-4-yl)oxy)pentyl)-1H-1,2,3-triazol-4-yl)methyl)piperazin-1-v)pyridin-3-yl)amino)-1-methyl-2-oxo-1,4-dihydropyrimido[4,5-d]pyrimidin-3(2H)-yl)-4-methylphenyl)-3-(trifluoromethyl)benzamide]
[1]; Experiment wp152, direction of change down
  logFC MAPK9 (P45984): −2.161
[1]; [9]
  logFC: −1.344
  logFC MAPK9: −1.344
[1]; [10]
  logFC: −1.045
  logFC MAPK9: −1.045
[1]; [11]
  logFC: −0.929
  logFC MAPK9: −0.929
[1]; [12]
  logFC: −1.414
  logFC MAPK9: −1.414
[1]; [13]
  logFC: −0.5078
  logFC MAPK9: −0.5078
[1]; [14]
  logFC: −1.488
  logFC MAPK9: −1.488
[1]; [15]
  logFC: −0.7555
  logFC MAPK9: −0.7555
[1]; [16]
  logFC: −1.498
  logFC MAPK9: −1.498
[1]; [17]
  logFC: −2.137
  logFC MAPK9: −2.137
[1]; [18]
  logFC: −0.8343
  logFC MAPK9: −0.8343
[1]; MAPK9 P45984, experiment wp152
  logFC MAPK9: −2.161
[2]; experiment wp045
  logFC PFKFB3: −0.5182
[2]; experiment wp160, 8 hr
  logFC PFKFB3: −0.3754

## CN(C)C(=O)c1cc2cnc(Nc3ccc(N4CCN(CCCCNC(=O)COc5cccc6c5C(=O)N(C5CCC(=O)NC5=O)C6=O)CC4)cn3)nc2n1C1CCCC1 (stereo not shown) [BSJ.04.132]
[3]; experiment wp084
  logFC NADK2: −0.5591
[4]; experiment wp084
  logFC AK4 (P27144): −0.6551
[5]; experiment wp084
  logFC FASTKD1 (Q53R41): −0.6747
[6]; experiment wp084
  logFC FASTKD5: −0.7073
[7]; experiment wp084
  logFC AK3 (Q9UIJ7-1): −0.6124

## CC(C)S(=O)(=O)c1ccccc1Nc1nc(Nc2ccc(N3CCN(CCOCCOCCC(=O)NCCNc4cccc5c4CN(C4CCC(=O)NC4=O)C5=O)CC3)cc2)ncc1Cl (stereo not shown) [TL13.97]
[5]; experiment wp137
  logFC FASTKD1 (Q53R41): −0.3684

## Cc1cc(Nc2ncc(Br)c(Nc3cccc(F)c3C(N)=O)n2)ccc1S(=O)(=O)NCCOCCOCCOCCOCCNc1cccc2c1C(=O)N(C1CCC(=O)NC1=O)C2=O (stereo not shown) [TMX.02.174]
[1]; [19]
  logFC: −1.031
  logFC MAPK9: −1.031

## NC(=O)c1c(F)cccc1Nc1nc(Nc2ccc(S(=O)(=O)NCCOCCOCCOCCOCCNc3cccc4c3C(=O)N(C3CCC(=O)NC3=O)C4=O)cc2)ncc1Br (stereo not shown) [TMX.02.138]
[1]; [19]
  logFC: −1.518
  logFC MAPK9: −1.518

## Cn1c(=O)c(-c2c(Cl)cccc2Cl)cc2cnc(Nc3ccc(OCCNC(=O)CCCCCCNC(=O)COc4cccc5c4C(=O)N(C4CCC(=O)NC4=O)C5=O)cc3)nc21 (stereo not shown) [SB1.G.192.1]
[5]; experiment wp081
  logFC FASTKD1 (Q53R41): −0.4222

## Cc1ccc(C(=O)Nc2ccc(CN3CCN(CCCOCCOCCOCCNC(=O)COc4cccc5c4C(=O)N(C4CCC(=O)NC4=O)C5=O)CC3)c(C(F)(F)F)c2)cc1C#Cc1cnc2cccnn12 (stereo not shown) [SB1.G.187]
[4]; experiment wp056
  logFC AK4 (P27144): −0.4478
[5]; Accession Q53R41, experiment wp056
  logFC FASTKD1: −0.4811
[6]; experiment wp056
  logFC FASTKD5: −0.4238

## CNC(=O)c1ccccc1Nc1cc(Nc2ccc(N3CCN(CCOCCOCCNC(=O)CNc4cccc5c4C(=O)N(C4CCC(=O)NC4=O)C5=O)CC3)cc2OC)ncc1C(F)(F)F (stereo not shown) [MFH.5.103.1]
[6]; experiment wp076
  logFC FASTKD5: −0.3493
[7]; experiment wp076
  logFC AK3 (Q9UIJ7-1): −0.431

## C=CCn1c(=O)c2cnc(Nc3ccc(N4CCN(CCCNc5cccc6c5C(=O)N(C5CCC(=O)NC5=O)C6=O)CC4)cc3)nc2n1-c1cccc(C(C)(C)O)n1 (stereo not shown) [ZNL.02.096]
[3]; experiment wp118
  logFC NADK2: −0.4004
[2]; experiment wp118
  logFC PFKFB3: −0.4051
[5]; experiment wp056
  logFC FASTKD1 (Q53R41): −0.4079
[5]; experiment wp118
  logFC FASTKD1 (Q53R41): −0.4559
[6]; experiment wp118
  logFC FASTKD5: −0.4552

## Cc1ccc(NC(=O)c2cccc(C(F)(F)F)c2)cc1N1Cc2cnc(Nc3ccc(N4CCN(CCCCCCOc5cccc6c5C(=O)N(C5CCC(=O)NC5=O)C6=O)CC4)nc3)nc2N(C)C1=O (stereo not shown) [DB0663]
[1]; [9]
  logFC: −0.598
  logFC MAPK9: −0.598
[2]; experiment wp045
  logFC PFKFB3: −0.4221

## CS(=O)(=O)Nc1cccc(-c2csc3cnc(Nc4ccc(N5CCN(CCCCCOc6cccc7c6C(=O)N(C6CCC(=O)NC6=O)C7=O)CC5)cc4)nc23)c1 (stereo not shown) [DB0614, N-(3-(2-((4-(4-(5-((2-(2,6-Dioxopiperidin-3-yl)-1,3-dioxoisoindolin-4-yl)oxy)pentyl)piperazin-1-yl)phenyl)amino)thieno[3,2-d]pyrimidin-7-yl)phenyl)methanesulfonamide]
[1]; [9]
  logFC: −0.5244
  logFC MAPK9: −0.5244
[1]; [14]
  logFC: −0.564
  logFC MAPK9: −0.564

## Cc1ccc(NC(=O)c2cccc(C(F)(F)F)c2)cc1N1Cc2cnc(Nc3ccc(N4CCN(CCCCC(=O)N[C@H](C(=O)N5C[C@H](O)C[C@H]5C(=O)N[C@@H](C)c5ccc(-c6scnc6C)cc5)C(C)(C)C)CC4)nc3)nc2N(C)C1=O [DB1113]
[1]; [8]
  logFC: −1.216
  logFC MAPK9: −1.216
[2]; experiment wp168
  logFC PFKFB3: −0.3724

## Cc1cnc(Nc2ccc(N3CCN(CCOCCOCCNC(=O)COc4cccc5c4C(=O)N(C4CCC(=O)NC4=O)C5=O)CC3)cc2)nc1Nc1cccc(S(=O)(=O)NC(C)(C)C)c1 (stereo not shown) [JWG.118]
[4]; experiment wp071
  logFC AK4 (P27144): −0.5314
[7]; experiment wp071
  logFC AK3 (Q9UIJ7-1): −0.4221

## CC(C)S(=O)(=O)c1ccccc1Nc1nc(Nc2ccc(N3CCN(CCOCCOCCNC(=O)CNc4cccc5c4C(=O)N(C4CCC(=O)NC4=O)C5=O)CC3)cc2)ncc1Cl (stereo not shown) [TL12.186]
[2]; experiment wp131
  logFC PFKFB3: −0.5643
[2]; experiment wp137
  logFC PFKFB3: −0.4067
[5]; experiment wp137
  logFC FASTKD1 (Q53R41): −0.3731
[6]; experiment wp137
  logFC FASTKD5: −0.3409
